Assay results reported in US20090061452A1, “Polymorphisms in the human genes for OCT 1 and their use in diagnostic and therapeutic applications” (Epidauros Biotechnologie AG, priority 2002, published 2009).
Changes are numbered by the printed parent chain. Entries after “also recorded” stand apart in the source; their conditions may differ.

Key:
OCT1 mutant Met420del = molecular target: T1, OCT1 mutant Met420del (Homo sapiens, UniProt O15245, DEL420-420); test: Cyanine863-inhibitable uptake in Xenopus oocytes expressing OCT1 mutant Met420del; type: cell-based
T1 construct: expressed in transfected cells; host or cells: Xenopus laevis oocytes injected with cRNA transcribed from the pOG1 vector
T1 sequence (O15245 with tags, fused parts or gaps DEL420-420): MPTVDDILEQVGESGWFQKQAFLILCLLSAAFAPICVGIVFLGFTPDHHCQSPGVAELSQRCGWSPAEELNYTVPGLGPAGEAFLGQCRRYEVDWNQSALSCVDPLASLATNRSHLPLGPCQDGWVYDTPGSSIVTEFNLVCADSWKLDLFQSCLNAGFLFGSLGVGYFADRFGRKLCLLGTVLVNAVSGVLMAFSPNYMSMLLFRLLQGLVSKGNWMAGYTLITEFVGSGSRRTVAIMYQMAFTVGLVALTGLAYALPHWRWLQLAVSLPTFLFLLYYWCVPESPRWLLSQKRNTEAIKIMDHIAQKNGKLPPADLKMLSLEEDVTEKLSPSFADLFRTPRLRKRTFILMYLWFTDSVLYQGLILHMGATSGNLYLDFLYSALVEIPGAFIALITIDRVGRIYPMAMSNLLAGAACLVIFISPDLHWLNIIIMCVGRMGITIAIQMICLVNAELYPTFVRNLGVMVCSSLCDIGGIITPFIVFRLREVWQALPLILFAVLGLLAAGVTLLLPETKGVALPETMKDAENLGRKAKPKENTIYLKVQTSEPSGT

OCT1 mutant Cys88Arg = molecular target: T2, OCT1 mutant Cys88Arg (Homo sapiens, UniProt O15245, C88R); test: Cyanine863-inhibitable uptake in Xenopus oocytes expressing OCT1 mutant Cys88Arg
T2 sequence (O15245 1-554 C88R): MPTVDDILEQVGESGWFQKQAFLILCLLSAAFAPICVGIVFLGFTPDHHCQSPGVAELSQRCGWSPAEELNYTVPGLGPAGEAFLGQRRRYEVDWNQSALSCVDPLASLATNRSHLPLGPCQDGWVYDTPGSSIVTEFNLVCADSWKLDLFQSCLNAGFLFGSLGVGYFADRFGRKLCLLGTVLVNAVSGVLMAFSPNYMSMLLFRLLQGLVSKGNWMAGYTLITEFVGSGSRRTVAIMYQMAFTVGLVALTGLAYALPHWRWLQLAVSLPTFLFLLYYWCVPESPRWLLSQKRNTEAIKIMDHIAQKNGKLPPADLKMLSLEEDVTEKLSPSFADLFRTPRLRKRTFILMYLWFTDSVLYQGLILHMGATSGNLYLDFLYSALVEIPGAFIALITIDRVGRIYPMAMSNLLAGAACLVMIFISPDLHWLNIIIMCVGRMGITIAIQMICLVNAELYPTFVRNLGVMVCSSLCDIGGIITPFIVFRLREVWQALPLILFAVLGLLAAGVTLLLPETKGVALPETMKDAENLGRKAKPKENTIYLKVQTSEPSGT
Experimental: (§1) OCT1 wt and OCT1 mutants were expressed in Xenopus oocytes and analyzed side-by-side. Cyanine863-inhibitable uptake of radioactively labeled organic cations was measured over 30 min. a) Uptake of 0.1 μM [^3H]MPP by different mutants in comparison to OCT1. […] In different batches of oocytes, the cyanine-863-inhibited uptake of 0.1 μM [^3H]MPP expressed by OCT1 wt varied between 0.9 and 1.8 μmol×oocyte^−1×30 min^−1. […] MPP uptake was measured at 9 different MPP concentrations and K0.5 values were determined by fitting the Hill equation to the data. […] Mean values±SD of three experiments are presented. *P<0.05, **P<0.01, ***P<0.001.
(§2) After defolliculation, the oocytes were injected with 10 ng/oocycte of the respective cRNAs. […] Oocytes were incubated for 30 min with the indicated substrate concentrations in the absence or presence of 100 μM of the inhibitor cyanine863. The mutants were compared with the OCT1 wt in side-by-side experiments using oocytes from the same batch (Arndt, Am J. Physiol. Renal Physiol. 281 (2001), F454-468). Each data point corresponded to 8-10 oocytes. K0.5 values were estimated by fitting the Hill equation to the data. Mean values±SD are presented. Significance of differences was tested by unpaired Student t-tests.

OCT1 mutant Arg61Cys = molecular target: T3, OCT1 mutant Arg61Cys (Homo sapiens, UniProt O15245, R61C); test: Cyanine863-inhibitable uptake in Xenopus oocytes expressing OCT1 mutant Arg61Cys; type: cell-based; details: 0.1 μM [3H]MPP, 30 min
T3 construct: expressed in transfected cells; host or cells: Xenopus laevis oocytes injected with cRNA transcribed from the pOG1 vector
T3 sequence (O15245 1-554 R61C): T2 sequence (O15245 1-554 C88R) with R61C, R88C

OCT1 mutant Phe160Leu = molecular target: T4, OCT1 mutant Phe160Leu (Homo sapiens, UniProt O15245); test: Cyanine863-inhibitable uptake in Xenopus oocytes expressing OCT1 mutant Phe160Leu; type: cell-based
T4 construct: expressed in transfected cells; host or cells: Xenopus laevis oocytes injected with cRNA transcribed from the pOG1 vector
T4 sequence (O15245 1-554): T2 sequence (O15245 1-554 C88R) with R88C

OCT1 mutant Gly401Ser = molecular target: T5, OCT1 mutant Gly401Ser (Homo sapiens, UniProt O15245, G401S); test: Cyanine863-inhibitable uptake in Xenopus oocytes expressing OCT1 mutant Gly401Ser
T5 sequence (O15245 1-554 G401S): T2 sequence (O15245 1-554 C88R) with R88C, G401S
Experimental: as §1, §2

[1] = Hill equation fit, 9 MPP concentrations

Row | SMILES | uptake compared to OCT1 wt (OCT1 mutant Met420del; 0.1 μM [3H]MPP, 30 min) | half maximal concentration for substrate activation (K0.5) compared to wild-type (OCT1 mutant Met420del; [1]) | maximal expressed transport rates compared to wild-type (OCT1 mutant Met420del; data not shown) | uptake reduced by (compared to OCT1 wt) (OCT1 mutant Cys88Arg; 0.1 μM [3H]MPP, 30 min) | uptake reduced by (compared to OCT1 wt) (OCT1 mutant Arg61Cys) [%] | uptake compared to OCT1 wt (OCT1 mutant Phe160Leu; 0.1 μM [3H]MPP, 30 min) | half maximal concentration for substrate activation (K0.5) compared to wild-type (OCT1 mutant Phe160Leu; [1]) | maximal expressed transport rates compared to wild-type (OCT1 mutant Phe160Leu; data not shown) | reduced Vmax value compared to OCT1 wt (OCT1 mutant Phe160Leu; n=3) [%] | uptake reduced by (compared to OCT1 wt) (OCT1 mutant Gly401Ser; 0.1 μM [3H]MPP, 30 min) | uptake compared to wt, relative to reduction of MPP uptake (OCT1 mutant Cys88Arg; 1 μM [3H]serotonin) | uptake compared to wt, relative to reduction of MPP uptake (OCT1 mutant Gly401Ser; 1 μM [3H]serotonin)
1 | C[n+]1ccc(-c2ccccc2)cc1 [MPP, 1-methyl-4-phenylpyridinium] | not significantly different from OCT1 wt | identical to wild-type | identical to wild-type | more than 98% | 70 | not significantly different from OCT1 wt | similar; also recorded: identical to wild-type | identical to wild-type | 32±16 | more than 98% | – | –
2 | NCCc1c[nH]c2ccc(O)cc12 [serotonin] | – | – | – | – | – | – | – | – | – | – | significantly less reduced | significantly less reduced
